Test results as given in patent US8324132B2, “Mixture and method for controlling undesired vegetation” (E. I. du Pont de Nemours and Company, priority 2010, dated 2012).

Experiments:
Type in all cases: in vivo
[1] = tested on: bermudagrass (Cynodon dactylon, CYNDA); test: Test D field plots: bermudagrass phytotoxic response
From the text: (§1) In the following Tests C through E, Colby's equation was used to calculate the expected additive herbicidal effect of nicosulfuron and glyphosate alone and in combination. Colby's equation (S. R. Colby, “Calculating Synergistic and Antagonistic Responses of Herbicide Combinations,” Weeds, 15(1), pp 20-22 (1967)) calculates the expected additive effect of herbicidal mixtures, and for two active ingredients is of the form: Pa+b=Pa+Pb−(PaPb/100) • wherein Pa±b is the percentage effect of the mixture expected from additive contribution of the individual components, • Pa is the observed percentage effect of the first active ingredient at the same use rate as in the mixture, and • Pb is the observed percentage effect of the second active ingredient at the same use rate as in the mixture.
(§2) For mixtures comprising nicosulfuron, metsulfuron-methyl and glyphosate the expected herbicidal effect was calculated based on the combination of nicosulfuron and metsulfuron-methyl providing observed herbicidal effect Pa and glyphosate providing observed herbicidal effect Pb in the Colby Equation. Plant responses to components Pa and Pb range from zero to 100% where zero is no observed response and 100% is complete response (i.e. plant death). Mixtures of herbicides were tested for their ability to express synergism (enhanced weed control) or antagonism (improved tolerance) at several locations in the United States. In the following Tests glyphosate was provided by the potassium salt of glyphosate. Crop phytotoxic response (% phyto) and weed control efficacy (% control) were visually evaluated using a 0-100 scale where zero is no visible response and 100 is plant death. In the following Tables “DAA” means days after application and “g a.i./ha” means grams active ingredient per hectare.
(§3) Herbicides and herbicide mixtures were applied to field plots of bermudagrass (Cynodon dactylon, CYNDA) near Lena, Miss. and Paris, Ark. to control knotroot foxtail (Setaria geniculata [Lam.] Beauv., SETGE) approximately one week after the bermudagrass had been cut and harvested. All herbicides and herbicide mixtures were formulated in water containing 0.25% (vol/vol) non-ionic surfactant (“NIS” provided by INDUCE®) and applied to bermudagrass stubble as a spray mixture using a backpack sprayer pressurized with CO2.

[2] = tested on: rescuegrass (Bromus catharticus Vahl., BROCA); test: Test E field plots: rescuegrass control
From the text: as §1, §2
(§4) Herbicides and herbicide mixtures were applied to field plots of dormant bermudagrass (Cynodon dactylon, CYNDA) near Eatonton, Ga. on Mar. 20, 2010 and Decatur, Tex. on Mar. 30, 2010 to control rescuegrass (Bromus catharticus Vahl., BROCA). All herbicides and herbicide mixtures were formulated in water containing 1.0% (vol/vol) crop oil concentrate and applied as a spray mixture to bermudagrass using a backpack sprayer pressurized with CO2.

[3] = tested on: bermudagrass (Cynodon dactylon, CYNDA); test: Test C field plots: bermudagrass phytotoxic response
From the text: as §1, §2
(§5) Herbicides and herbicide mixtures were applied to field plots of bermudagrass (Cynodon dactylon, CYNDA) near De Leon, Tex., Yukon, Okla. and Burlington, Okla. to control field sandbur (Cenchrus incertus M. A. Curtis, CCHIN) approximately one week after the bermudagrass had been cut and harvested. All herbicides and herbicide mixtures were formulated in water containing 0.25% (vol/vol) non-ionic surfactant (“NIS” provided by INDUCE®) and applied as a spray mixture to bermudagrass stubble using a backpack sprayer pressurized with CO2.

[4] = tested on: field sandbur (Cenchrus incertus M. A. Curtis, CCHIN); test: Test C field plots: field sandbur control
From the text: as §1, §2, §5

[5] = tested on: knotroot foxtail (Setaria geniculata [Lam.] Beauv., SETGE); test: Test D field plots: knotroot foxtail control
From the text: as §1, §2, §3

[6] = tested on: dormant bermudagrass (Cynodon dactylon, CYNDA); test: Test E field plots: dormant bermudagrass phytotoxic response
From the text: as §1, §2, §4

[7] = glyphosate 96 g a.i./ha, 30 DAA, Paris, AR
[8] = glyphosate 96 g a.i./ha, 60 DAA, Paris, AR
[9] = glyphosate 192 g a.i./ha, 15 DAA, Lena, MS
[10] = glyphosate 192 g a.i./ha, 30 DAA, Paris, AR
[11] = glyphosate 192 g a.i./ha, 60 DAA, Paris, AR
[12] = glyphosate 289 g a.i./ha, 15 DAA, Lena, MS
[13] = glyphosate 289 g a.i./ha, 30 DAA, Paris, AR
[14] = glyphosate 289 g a.i./ha, 60 DAA, Paris, AR
[15] = glyphosate 144 g a.i./ha, 30 DAA, Decatur, TX
[16] = glyphosate 144 g a.i./ha, 45 DAA, Eatonton, GA
[17] = glyphosate 144 g a.i./ha, 60 DAA, Decatur, TX
[18] = glyphosate 289 g a.i./ha, 30 DAA, Decatur, TX
[19] = glyphosate 289 g a.i./ha, 45 DAA, Eatonton, GA
[20] = glyphosate 289 g a.i./ha, 60 DAA, Decatur, TX
[21] = glyphosate 96 g a.i./ha, 15 DAA, De Leon, TX
[22] = glyphosate 96 g a.i./ha, 30 DAA, Yukon, OK
[23] = glyphosate 96 g a.i./ha, 90 DAA, Yukon, OK and Burlington, OK
[24] = glyphosate 192 g a.i./ha, 15 DAA, De Leon, TX
[25] = glyphosate 192 g a.i./ha, 30 DAA, Yukon, OK
[26] = glyphosate 192 g a.i./ha, 90 DAA, Yukon, OK and Burlington, OK
[27] = glyphosate 289 g a.i./ha, 15 DAA, De Leon, TX
[28] = glyphosate 289 g a.i./ha, 30 DAA, Yukon, OK
[29] = glyphosate 289 g a.i./ha, 90 DAA, Yukon, OK and Burlington, OK
[30] = nicosulfuron 39 g a.i./ha, 30 DAA, Paris, AR
[31] = nicosulfuron 39 g a.i./ha, 60 DAA, Paris, AR
[32] = nicosulfuron 39 g a.i./ha, 30 DAA, Decatur, TX
[33] = nicosulfuron 39 g a.i./ha, 45 DAA, Eatonton, GA
[34] = nicosulfuron 39 g a.i./ha, 60 DAA, Decatur, TX
[35] = nicosulfuron 39 g a.i./ha, 15 DAA, De Leon, TX
[36] = nicosulfuron 39 g a.i./ha, 30 DAA, Yukon, OK
[37] = nicosulfuron 39 g a.i./ha, 90 DAA, Yukon, OK and Burlington, OK

**Q.** For `O=C(O)CNCP(=O)(O)O` [Glyphosate, glyphosate], which “CYNDA (% phyto) Observed” value [1, 7] is on record?
**A.** Its value is 0%.

**Q.** And the “CYNDA (% phyto) Observed” value [1, 8]?
**A.** The value was 0%.

**Q.** And the “CYNDA (% phyto) Observed” value [1, 9]?
**A.** The value was 18%.

**Q.** What about the “CYNDA (% phyto) Observed” value [1, 10] of the same compound?
**A.** Its value is 2%.

**Q.** What about the “CYNDA (% phyto) Observed” value [1, 11] of the same compound?
**A.** Its value is 0%.

**Q.** And the “CYNDA (% phyto) Observed” value [1, 12]?
**A.** The value was 20%.

**Q.** And the “CYNDA (% phyto) Observed” value [1, 13]?
**A.** The value was 11%.

**Q.** And the “CYNDA (% phyto) Observed” value [1, 14]?
**A.** The value was 0%.

**Q.** And the “BROCA (% control) Observed” value ([2]; glyphosate 144 g a.i./ha, 15 DAA, Eatonton, GA)?
**A.** Its value is 0%.

**Q.** What about the “BROCA (% control) Observed” value [2, 15] of the same compound?
**A.** Its value is 0%.

**Q.** What about the “BROCA (% control) Observed” value [2, 16] of the same compound?
**A.** Its value is 88%.

**Q.** And the “BROCA (% control) Observed” value [2, 17]?
**A.** The value was 0%.

**Q.** And the “BROCA (% control) Observed” value ([2]; glyphosate 289 g a.i./ha, 15 DAA, Eatonton, GA)?
**A.** Its value is 87%.

**Q.** And the “BROCA (% control) Observed” value [2, 18]?
**A.** The value was 0%.

**Q.** What about the “BROCA (% control) Observed” value [2, 19] of the same compound?
**A.** Its value is 95%.

**Q.** What about the “BROCA (% control) Observed” value [2, 20] of the same compound?
**A.** Its value is 0%.

**Q.** What about the “CYNDA (% phyto) Observed” value [3, 21] of the same compound?
**A.** The value was 0%.

**Q.** And the “CYNDA (% phyto) Observed” value [3, 22]?
**A.** The value was 0%.

**Q.** What about the “CYNDA (% phyto) Observed” value [3, 23] of the same compound?
**A.** Its value is 0%.

**Q.** What about the “CYNDA (% phyto) Observed” value [3, 24] of the same compound?
**A.** The value was 5%.

**Q.** What about the “CYNDA (% phyto) Observed” value [3, 25] of the same compound?
**A.** The value was 0%.

**Q.** What about the “CYNDA (% phyto) Observed” value [3, 26] of the same compound?
**A.** Its value is 0%.

**Q.** What about the “CYNDA (% phyto) Observed” value [3, 27] of the same compound?
**A.** The value was 13%.

**Q.** And the “CYNDA (% phyto) Observed” value [3, 28]?
**A.** The value was 0%.

**Q.** What about the “CYNDA (% phyto) Observed” value [3, 29] of the same compound?
**A.** The value was 0%.

**Q.** What about the “CCHIN (% control) Observed” value [4, 21] of the same compound?
**A.** Its value is 60%.

**Q.** And the “CCHIN (% control) Observed” value [4, 22]?
**A.** Its value is 2%.

**Q.** And the “CCHIN (% control) Observed” value [4, 23]?
**A.** The value was 55%.

**Q.** And the “CCHIN (% control) Observed” value [4, 24]?
**A.** Its value is 74%.

**Q.** What about the “CCHIN (% control) Observed” value [4, 25] of the same compound?
**A.** Its value is 18%.

**Q.** What about the “CCHIN (% control) Observed” value [4, 26] of the same compound?
**A.** Its value is 63%.

**Q.** And the “CCHIN (% control) Observed” value [4, 27]?
**A.** Its value is 89%.

**Q.** And the “CCHIN (% control) Observed” value [4, 28]?
**A.** Its value is 35%.

**Q.** What about the “CCHIN (% control) Observed” value [4, 29] of the same compound?
**A.** The value was 75%.

**Q.** What about the “SETGE (% control) Observed” value [5, 7] of the same compound?
**A.** The value was 7%.

**Q.** And the “SETGE (% control) Observed” value [5, 8]?
**A.** The value was 3%.

**Q.** And the “SETGE (% control) Observed” value [5, 9]?
**A.** The value was 79%.

**Q.** And the “SETGE (% control) Observed” value [5, 10]?
**A.** Its value is 28%.

**Q.** What about the “SETGE (% control) Observed” value [5, 11] of the same compound?
**A.** Its value is 18%.

**Q.** What about the “SETGE (% control) Observed” value [5, 12] of the same compound?
**A.** The value was 84%.

**Q.** What about the “SETGE (% control) Observed” value [5, 13] of the same compound?
**A.** The value was 40%.

**Q.** And the “SETGE (% control) Observed” value [5, 14]?
**A.** Its value is 20%.

**Q.** What about the “CYNDA (% phyto) Observed” value [6, 15] of the same compound?
**A.** Its value is 0%.

**Q.** What about the “CYNDA (% phyto) Observed” value [6, 16] of the same compound?
**A.** Its value is 0%.

**Q.** And the “CYNDA (% phyto) Observed” value [6, 17]?
**A.** Its value is 0%.

**Q.** And the “CYNDA (% phyto) Observed” value [6, 18]?
**A.** The value was 0%.

**Q.** And the “CYNDA (% phyto) Observed” value [6, 19]?
**A.** Its value is 0%.

**Q.** What about the “CYNDA (% phyto) Observed” value [6, 20] of the same compound?
**A.** Its value is 0%.

**Q.** How did the “CYNDA (% phyto) Observed” value [1, 30] turn out when `COc1cc(OC)nc(NC(=O)NS(=O)(=O)c2ncccc2C(=O)N(C)C)n1` [Nicosulfuron, nicosulfuron] was run?
**A.** Its value is 3%.

**Q.** What about the “CYNDA (% phyto) Observed” value [1, 31] of the same compound?
**A.** Its value is 0%.

**Q.** And the “BROCA (% control) Observed” value ([2]; nicosulfuron 39 g a.i./ha, 15 DAA, Eatonton, GA)?
**A.** The value was 10%.

**Q.** What about the “BROCA (% control) Observed” value [2, 32] of the same compound?
**A.** The value was 63%.

**Q.** What about the “BROCA (% control) Observed” value [2, 33] of the same compound?
**A.** Its value is 79%.

**Q.** And the “BROCA (% control) Observed” value [2, 34]?
**A.** The value was 53%.

**Q.** And the “CYNDA (% phyto) Observed” value [3, 35]?
**A.** Its value is 5%.

**Q.** What about the “CYNDA (% phyto) Observed” value [3, 36] of the same compound?
**A.** The value was 10%.

**Q.** And the “CYNDA (% phyto) Observed” value [3, 37]?
**A.** The value was 0%.

**Q.** And the “CCHIN (% control) Observed” value [4, 35]?
**A.** The value was 65%.

**Q.** And the “CCHIN (% control) Observed” value [4, 36]?
**A.** Its value is 78%.

**Q.** What about the “CCHIN (% control) Observed” value [4, 37] of the same compound?
**A.** The value was 88%.

**Q.** And the “SETGE (% control) Observed” value [5, 30]?
**A.** Its value is 28%.

**Q.** And the “SETGE (% control) Observed” value [5, 31]?
**A.** The value was 10%.

**Q.** And the “CYNDA (% phyto) Observed” value [6, 32]?
**A.** Its value is 0%.

**Q.** What about the “CYNDA (% phyto) Observed” value [6, 33] of the same compound?
**A.** Its value is 0%.

**Q.** What about the “CYNDA (% phyto) Observed” value [6, 34] of the same compound?
**A.** The value was 0%.
